The values below come from patent publication US20260256789A1, “METHODS FOR TREATMENT OF CANCER” (Frontier Medicines Corporation, priority 2022, published 2026).

T1 sequence (P01116 1-169 isoform P01116-2 G12C/C51S/C80L/C118S): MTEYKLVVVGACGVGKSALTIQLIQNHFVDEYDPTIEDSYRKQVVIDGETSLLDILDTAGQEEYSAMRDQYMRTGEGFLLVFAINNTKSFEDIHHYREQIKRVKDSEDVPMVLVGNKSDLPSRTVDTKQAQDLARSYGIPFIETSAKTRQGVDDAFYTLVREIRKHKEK

This assay has as its target T1, KRAS G12C (GMPPNP-loaded) and cRAF Ras-binding domain (Homo sapiens, UniProt P01116, C118S/C51S/C80L/G12C).
T1 construct: truncated version comprising amino acids 1-169
Briefly: Inhibition of KRAS G12C and cRAF binding (AlphaScreen). As to conditions: KRAS G12C preloaded with GTP analogue GMPPNP, 2 hours preincubation. The method, boiled down:
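Compounds (10-point, 1:3 from 50 μM; 2% DMSO) were incubated 2 h at room temperature with 0.5 nM GMPPNP-preloaded truncated Cys-light KRAS G12C, then 60-90 min with 0.75 nM GST-RBD of cRAF and AlphaScreen beads. Signal at 570 nm gave IC50 by 4-parameter regression, and a biotin-AviTag-GST counter assay excluded interference with the AlphaScreen readout.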
In general terms: Alpha assays give light when donor and acceptor beads are brought close together.
`C=CC(=O)N1CC[C@@H](N(C)c2nc(OC[C@@]34CCCN3C[C@H](F)C4)nc3c(F)c(-c4cc(O)cc5nccnc45)ncc23)C1` [Example 192] yielded an IC50 of 100 to 500 nM.

`CN(c1nc(OC[C@@]23CCCN2C[C@H](F)C3)nc2c(F)c(-c3cccc(Cl)c3C3CC3)ncc12)[C@@H]1CCN(C(=O)C#C[C@]2(C)CCCN2)C1` [Example 193] returned an IC50 of less than 10 nM.

The compound `C=CC(=O)N1CC[C@@H](N(C)c2nc(OC[C@@]34CCCN3C[C@H](F)C4)nc3c(F)c(-c4c(Cl)c(C)cc5[nH]ncc45)ncc23)C1` [Example 194] came in with an IC50 of 10 to 100 nM.

The compound `C=CC(=O)N1CC[C@@H](N(C)c2nc(OC[C@@]34CCCN3C[C@H](F)C4)nc3c(F)c(-c4cccc(C(F)F)c4C4CC4)ncc23)C1` [Example 195] yielded an IC50 of no less than 500 nM.

`C=CC(=O)N1CC[C@@H](N(C)c2nc(OC[C@@]34CCCN3C[C@H](F)C4)nc3c(F)c(-c4c[nH]nc4C(F)(F)F)ncc23)C1` [Example 196] displayed an IC50 of no less than 500 nM.

As to `CN(C)C/C=C/C(=O)N1CC[C@@H](N(C)c2nc(OC[C@@]34CCCN3C[C@H](F)C4)nc3c(F)c(-c4cc(O)cc(Cl)c4C4CC4)ncc23)C1` [Example 197], the IC50 is less than 10 nM.

`C=CC(=O)N1CC[C@@H](N(C)c2nc(OC[C@@]34CCCN3C[C@H](F)C4)nc3c(F)c(-c4cccc(C(F)(F)F)c4C4CC4)ncc23)C1` [Example 198]: the IC50 was no less than 500 nM.

Consider `C=CC(=O)N1CC(CN(C)c2nc(OCC34CCCN3CCC4)nc3c2C[C@@H](C)[C@H](c2nc(N)cc(C)c2C(F)(F)F)C3)C1` [Example 199], for which the IC50 is no less than 500 nM.

Regarding `Cc1cc(/C=C/C(=O)N2CC(CN(C)c3nc(OC[C@@]45CCCN4C[C@H](F)C5)nc4c(F)c(-c5cccc(Cl)c5C5CC5)ncc34)C2)nc(C)n1` [Example 200], the IC50 was in the range of 100 to 500 nM.

In turn, `Cc1cc(/C=C/C(=O)N2CC[C@@H](N(C)c3nc(OC[C@@]45CCCN4C[C@H](F)C5)nc4c(F)c(-c5cc(O)cc(Cl)c5C5CC5)ncc34)C2)nc(C)n1` [Example 201] registered an IC50 of less than 10 nM.

Take `C=CC(=O)N1CC[C@@H](N(C)c2nc(OC[C@@]34CCCN3C[C@H](F)C4)nc3c(F)c(-c4ccc(F)c(F)c4C4CC4)ncc23)C1` [Example 202]: the half-inhibitory concentration (IC50) is no less than 500 nM.

Consider `Cc1cc(N)nc(N2CCc3c(nc(OC[C@@]45CCCN4C[C@H](F)C5)nc3N(C)[C@@H]3CCN(C#N)C3)C2)c1C(F)(F)F` [Example 203], for which the IC50 is no less than 500 nM.

As for `Cc1cc(/C=C/C(=O)N2CC(CN(C)c3nc(OC[C@@]45CCCN4C[C@H](F)C5)nc4c(F)c(-c5cc(O)cc(Cl)c5C5CC5)ncc34)C2)nc(C)n1` [Example 204], the IC50 fell in the range of 100 to 500 nM.

The compound `C=CC(=O)N1CC[C@H](O)[C@@H](N(C)c2nc(OC[C@@]34CCCN3C[C@H](F)C4)nc3c(F)c(-c4cccc(Cl)c4C(F)(F)F)ncc23)C1` [Example 205] displayed an IC50 of no less than 500 nM.

As to `C=CC(=O)N1CC[C@@H](N(C)c2nc(OC[C@@]34CCCN3C[C@H](F)C4)nc3c(F)c(-c4cc(O)cc(F)c4C4CC4)ncc23)C1` [Example 206], the IC50 is less than 10 nM.

Compound `C=CC(=O)N1CC(CN(C)c2nc(OCC34CCCN3CCC4)nc3c2CC(C)C(c2nc(N)cc(C)c2C(F)(F)F)C3)C1` (stereo not drawn) [Example 207] had an IC50 of no less than 500 nM.

As to `CN(c1nc(OC[C@@]23CCCN2C[C@H](F)C3)nc2c(F)c(-c3cccc(Cl)c3C3CC3)ncc12)[C@@H]1CCN(C(=O)C#C[C@]2(C)CCCN2C)C1` [Example 208], the IC50 fell in the range of 10 to 100 nM.

Compound `C=CC(=O)N1CC[C@@H](N(C)c2nc(OC[C@@]34CCCN3C[C@H](F)C4)nc3c(F)c(-c4nccc5cccc(Cl)c45)ncc23)C1` [Example 209] came in with an IC50 of no less than 500 nM.

Take `CO[C@H]1CCN(C/C=C/C(=O)N2CC[C@@H](N(C)c3nc(OC[C@@]45CCCN4C[C@H](F)C5)nc4c(F)c(-c5cccc(Cl)c5C5CC5)ncc34)C2)C1` [Example 210]: the 50% inhibitory concentration (IC50) is 10 to 100 nM.

Regarding `C=CC(=O)N1CC[C@@H](N(C)c2nc(OC[C@@]34CCCN3C[C@H](F)C4)nc3c(F)c(-c4nccc(C)c4C(F)(F)F)ncc23)C1` [Example 211], the IC50 is no less than 500 nM.

In the case of `C=CC(=O)N1CC[C@@H](N(C)c2nc(OC[C@@]34CCCN3C[C@H](F)C4)nc3c(F)c(-c4cnn5cccc(F)c45)ncc23)C1` [Example 212], the IC50 is no less than 500 nM.

In the case of `CN1CC[C@@H]1/C=C/C(=O)N1CC[C@@H](N(C)c2nc(OC[C@@]34CCCN3C[C@H](F)C4)nc3c(F)c(-c4cc(O)cc(Cl)c4C4CC4)ncc23)C1` [Example 213], the IC50 was less than 10 nM.

`CC(C)c1noc(/C=C/C(=O)N2CC[C@@H](N(C)c3nc(OC[C@@]45CCCN4C[C@H](F)C5)nc4c(F)c(-c5nc(N)ccc5OC(F)F)ncc34)C2)n1` [Example 214] registered an IC50 of 10 to 100 nM.

`CN(c1nc(OC[C@@]23CCCN2C[C@H](F)C3)nc2c(F)c(-c3cccc(Cl)c3C3CC3)ncc12)[C@@H]1CCN(C(=O)C#C[C@@]2(C)CCCN2)C1` [Example 215]: the IC50 is less than 10 nM.

`C#Cc1cccc2[nH]nc(-c3ncc4c(N(C)[C@@H]5CCN(C(=O)C=C)C5)nc(OC[C@@]56CCCN5C[C@H](F)C6)nc4c3F)c12` [Example 216]: the IC50 is no less than 500 nM.

Take `C=CC(=O)N1CC[C@@H](N(C)c2nc(OC[C@@]34CCCN3C[C@H](F)C4)nc3c(F)c(-c4cccc(Cl)c4C(F)(F)F)ncc23)[C@H]1C` [Example 217]: the IC50 fell in the range of 10 to 100 nM.

With `C=CC(=O)N1CC[C@@H](N(C)c2nc(OC[C@@]34CCCN3C[C@H](F)C4)nc3c(F)c(-c4c(O)cccc4C4CC4)ncc23)C1` [Example 218], the IC50 was no less than 500 nM.

Regarding `C=CC(=O)N1CC[C@@H](N(C)c2nc(OC[C@@]34CCCN3C[C@H](F)C4)nc3c(F)c(-c4cccn5cncc45)ncc23)C1` [Example 219], the IC50 was no less than 500 nM.

The compound `C=CC(=O)N1CC[C@@H](N(C)c2nc(OC[C@@]34CCCN3C[C@H](F)C4)nc3c(F)c(-c4cccc(F)c4C4CC4)ncc23)C1` [Example 220] returned an IC50 of no less than 500 nM.

Consider `Cc1nccc(/C=C/C(=O)N2CC[C@@H](N(C)c3nc(OC[C@@]45CCCN4C[C@H](F)C5)nc4c(F)c(-c5cccc(Cl)c5C5CC5)ncc34)C2)n1` [Example 221], for which the IC50 was 100 to 500 nM.

As to `CO[C@@H]1CCN(C/C=C/C(=O)N2CC[C@@H](N(C)c3nc(OC[C@@]45CCCN4C[C@H](F)C5)nc4c(F)c(-c5cccc(Cl)c5C5CC5)ncc34)C2)C1` [Example 222], the IC50 fell in the range of 100 to 500 nM.

Consider `CN(c1nc(OC[C@@]23CCCN2C[C@H](F)C3)nc2c(F)c(-c3cccc(Cl)c3C3CC3)ncc12)[C@@H]1CCN(C(=O)C#CCN2CCOCC2)C1` [Example 223], for which the IC50 was in the range of 100 to 500 nM.

For `C=CC(=O)N1CCC(N(C)c2nc(OC[C@@]34CCCN3C[C@H](F)C4)nc3c(F)c(-c4n[nH]c5cccc(Cl)c45)ncc23)C1` (stereo partly drawn) [Example 224], the IC50 is no less than 500 nM.

`C=CC(=O)N1CC[C@@H](N(C)C2=c3cnc(-c4c[nH]nc4Cl)c(F)c3=NC(OC[C@@]34CCCN3C[C@H](F)C4)N2)C1` (stereo partly drawn) [Example 225]: the IC50 is no less than 500 nM.

The compound `CN1CC[C@@H]1/C=C/C(=O)N1CC[C@@H](N(C)c2nc(OC[C@@]34CCCN3C[C@H](F)C4)nc3c(F)c(-c4cccc(Cl)c4C4CC4)ncc23)C1` [Example 227] gave an IC50 of less than 10 nM.

`C=CC(=O)N1CC[C@@H](N(C)c2nc(OC[C@@]34CCCN3C[C@H](F)C4)nc3c(F)c(-c4cc(O)c(C)cc4C4CC4)ncc23)C1` [Example 228] gave an IC50 of no less than 500 nM.

A word on the IC50: it is the concentration at which inhibition is half-maximal.
